Values joined by “and” are separate entries in the source; they are usually repeats but may differ in a detail not shown here. Equal entries are not always repeated.
What was measured:
[1] = Temporal change in oxidizing property (iodine titration method); assay type: physicochemical; details: 1% aqueous solution, 25° C., 700 days
Excerpt: After deaerating the obtained aqueous ozonized surfactant solution to remove dissolved ozone gas by helium purging, the oxidizing property of the aqueous ozonized surfactant solution can be determined by the iodine titration method (see Non Patent Literature 1). Whether or not the aqueous ozonized surfactant solution maintains a function as a surfactant can be evaluated by checking whether or not frothing, which is a characteristic of surfactants, occurs when the solution is agitated or vibrated.
Meanwhile, oxygen was supplied from an oxygen cylinder into an ozonizer (ozonizer GR-RB made by Sumitomo Precision Products Co., Ltd.) at an oxygen flow rate of 0.3 L/min to ozonize the oxygen to produce ozone gas. Then, the ozone gas was dissolved in the above-described aqueous solution in a dissolving module (SEK model made by ERC Technology), and the aqueous solution was circulated at a flow rate of 1 L/min. […] Further, in 30 minutes, the concentration increased to 25 ppm (see FIG. 2). After deaerating the aqueous solution that had undergone about 30-minute ozone treatment to remove dissolved ozone gas by helium purging, oxidizing property of the aqueous solution was determined by the iodine titration method. As a result, the aqueous solution had oxidizing property, and frothing, which is a characteristic of surfactants, was observed. The results confirmed that ozonized Tween 80 had been produced. Further, a temporal change in the oxidizing property of the aqueous solution was determined by the iodine titration method at 25° C. for 20 days. As a result, the percentage of oxidizing property measured after 20 days to that measured just after preparation was 109%.
The solution A was diluted to a 1% aqueous solution, and a temporal change in the oxidizing property of the aqueous solution was determined by the iodine titration method at 25° C. for 700 days. As a result, the percentage of oxidizing property measured after 700 days to that measured just after preparation was 101%.

[2] = system: Cladosporium cladosporioides; test: Minimum bactericidal concentration test; assay type: cell-based; details: 96 h, 25° C.
Description: (§1) Here, the ozonized surfactant was diluted 100-fold, and therefore the ozonized surfactant was considered to be ineffective. […] [table]

Saccharomyces cerevisiae = test: Minimum bactericidal concentration test; assay type: cell-based; details: 48 h, 28° C.
Description: as §1

Staphylococcus aureus [3] = test: Minimum bactericidal concentration test; assay type: cell-based; details: 24 h, 37° C.
Description: as §1

[4] = system: Trichophyton mentagrophytes; test: Minimum bactericidal concentration test; assay type: cell-based; details: 96 h, 25° C.
Description: as §1

Escherichia coli = test: Sterilizing activity value test; assay type: cell-based; details: 0.5% aqueous solution, contact time 5 min, 25 ± 1° C., vs 0.05 (w/v %) Polysorbate 80 control
Description: (§2) In order to check the effect of the ozonized surfactant as a sterilizing detergent, a sterilizing activity test was performed. A 0.5% aqueous solution of the solution obtained in Example 4 was tested based on the sterilizing activity test of home care synthetic detergents and soaps, which is a method set by Detergent and Soap Fair Trade Council. […] Each of the control solution and the test sample solutions described in the table below is applied to a test specimen to which bacteria have been inoculated beforehand. After letting the specimens stand for a certain period of time, the viable bacteria count on each specimen is measured. The sterilizing activity value is obtained by subtracting the common logarithm value of the viable bacteria count on the specimen treated with a test sample from the common logarithm value of the viable bacteria count on the specimen treated with the control. […] In a predetermined period of time, an inactivator is applied to inactivate the property suppressing the growth of bacteria and the property killing bacteria, and subsequently the viable bacteria count on the specimen is determined. […]

Staphylococcus aureus [5] = test: Sterilizing activity value test; assay type: cell-based; details: 0.5% aqueous solution, contact time 5 min, 25 ± 1° C., vs 0.05 (w/v %) Polysorbate 80 control
Description: as §2

[6] = system: Sprague-Dawley female rats; test: Single dose oral toxicity test; assay type: in vivo; parameters: key to General conditions, 3 hours after administration / General conditions, 1 hour after administration / General conditions, 2 hours after administration: D: diarrhea; LS: loose stool; RF: reddish feces; DL: decrease in locomotor activity; *: the result was observed at 4 hours after administration; details: for rats that developed symptoms on the administration day: transient, resolved by the 2nd day
Description: In order to roughly determine the lethal dose of the ozonized surfactant used for the present invention, an acute single dose oral toxicity test was performed according to “OECD Guideline for Testing of Chemicals, Acute Oral Toxicity-Acute Toxic Class Method”, Revised Guideline 423, adopted on Mar. 22, 1996 and revised on Dec. 17, 2001) by administering the solution A described in Example 4 to 12 Sprague-Dawley [Ctr: CD (SD), SPF ] female rats. Rats were divided into 4 groups each consisting of 3 rats. For each rat, an appropriate liquid volume was calculated based on individual body weight so that the solution A in an amount equivalent to 300 mg/kg of the ozonized surfactant was administered to 2 groups (6 rats) and the solution in an amount equivalent to 2000 mg/kg was administered to the other 2 groups (6 rats), with the use of a gastric tube for rats. (These groups will be hereinafter referred to as 300 mg/kg administration groups and 2000 mg/kg administration groups, respectively.) Counting the administration day as the 1st day, general conditions of the rats were observed until the 15th day, and the number of dead individuals was counted. The general conditions of all the animals were observed once before administration, intermittently for 1 hour after administration, and subsequently about every hour until 3 hours (of some rats until 4 hours) after administration. Since the 2nd day, the observation was repeated daily.
In the table, D, LS, RF and DL mean diarrhea, loose stool, reddish feces and decrease in locomotor activity, respectively.

insects such as ants = test: Repellent activity (Test Example 14); assay type: in vivo, pill bug; details: 8 hours
Description: The repellent performance of the ozonized surfactant of the present invention was checked. […] In addition, 1 g of honey was instilled into the center. […] These specimens were placed on leaf mold in a flower bed, and the conditions were observed 8 hours later.

[7] = 300 mg/kg administration group (6 rats)
[8] = 2000 mg/kg administration group (6 rats)
[9] = 2000 mg/kg oral, per animal, — = no symptom, listed as solution A

With “Ozonized POE (10 EO) oleyl ether [Example 4]” the “percentage of oxidizing property measured after 700 days to that measured just after preparation” value [1] was 101%, the Minimum bactericidal concentration [2] was 0.18% and the Minimum bactericidal concentration (Saccharomyces cerevisiae) was 0.03%. It also gave a Minimum bactericidal concentration (Staphylococcus aureus [3]) of 0.11%, a Minimum bactericidal concentration [4] of 0.03% and a sterilizing activity value (Escherichia coli) of 4.6. For the same substance, the sterilizing activity value (Staphylococcus aureus [5]) was 2.8, the “Death until the 15th day” value [6, 7] was “Death was not found” and the “rats that developed symptoms on the administration day” value [6, 7] was 1 rat. The “General conditions, 3 hours after administration” value ([6]; 300 mg/kg oral, per animal, — = no symptom) was “LS*”, the “Decrease in locomotor activity (number of animals)” value (from here on “Decrease in locomotor activity”) ([6]; 2-15 days, all 12 rats) was 0 and the “Diarrhea or loose stool (number of animals)” value (from here on “Diarrhea or loose stool”) ([6]; 2-15 days, all 12 rats) was 0. The “Reddish feces (number of animals)” value ([6]; 2-15 days, all 12 rats) was 0, the “Death until the 15th day” value [6, 8] was “Death was not found” and the “rats that developed symptoms on the administration day” value [6, 8] was 5 rats. The “General conditions, 1 hour after administration” value [6, 9] was “D, DL and D, RF and D (2×)”, the “General conditions, 2 hours after administration” value [6, 9] was “D” and the “General conditions, 3 hours after administration” value [6, 9] was “D* and LS and D (2×)”. The “Body weight transition during the observation period” value ([6]; 300 and 2000 mg/kg, 15 days) was “favorable”, the “Decrease in locomotor activity” value ([6]; 1 hour, all 12 rats) was 2 and the “Reddish feces (number of animals)” value ([6]; 1 hour, all 12 rats) was 1. The “Diarrhea or loose stool” value ([6]; 1 hour, all 12 rats (300 and 2000 mg/kg)) was 4, the “Decrease in locomotor activity” value ([6]; 2 hours, all 12 rats) was 0 and the “Diarrhea or loose stool” value ([6]; 2 hours, all 12 rats) was 3. For the same substance, the “Reddish feces (number of animals)” value ([6]; 2 hours, all 12 rats) was 0, the “Decrease in locomotor activity” value ([6]; 3 hours, all 12 rats) was 0 and the “Diarrhea or loose stool” value ([6]; 3 hours, all 12 rats) was 5. The “Reddish feces (number of animals)” value ([6]; 3 hours, all 12 rats) was 0, the LD50 cut-off value ([6]; oral, rat) was “infinite” and the “acute toxicity classification of the GHS” value ([6]; oral, rat) was “Category 5 or does not correspond to any of the acute toxicity categories”. For the same substance, the “insects gathered on the specimen” value (insects such as ants; 2 mL of 1% aqueous solution on tissue paper with 1 g honey) was “did not gather at all” and the “insects gathered on the specimen” value (insects such as ants; 2 mL of 10% aqueous solution on tissue paper with 1 g honey) was “did not gather at all”.
